In PubChem BioAssay AID1963985 (Molecular Pharmacology Branch, DTP, NCI, 2024):
pIC50: −log10 of the molar value.

Tested on: 252836-082-R-J2-PDC tumor spheroids, viability
Test: Anticancer human tumor 252836-082-R-J2-PDC patient-derived head and neck squamous cell carcinoma cell line growth inhibition [PI3K]
Details: spheroids with HUVEC and MSC; for pIC50: curve of first compound; for viability, T/C: stronger effect = lower value
Method in brief: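 Multi-cell spheroids combine tumor cells with HUVEC and human MSCs, treated with targeted agents alone or with inavolisib, alpelisib, duvelisib or copanlisib. Concentrations fall in half-log steps from at or near clinical Cmax, or from 10 microM where Cmax is unknown; viability read-out.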
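Further: spheroids exposed to agents for seven days before readout.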
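Wherever viability, T/C is given: percent of vehicle DMSO control viability so 100% = untreated growth.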

For `CC(C)n1nc(-c2ccc3oc(N)nc3c2)c2c(N)ncnc21` + CC(Nc1ccc2c(c1)OCCn1cc(N3C(=O)OCC3C(F)F)nc1-2)C(N)=O, the pIC50 (second compound 0.00316 µM) was 7.43, the pIC50 (second compound 0.01 µM) was 7.57 and the pIC50 (second compound 0.0316 µM) was 7.65. The pIC50 (second compound 0.1 µM) was 8.03, the pIC50 (second compound 0.316 µM) was 8.39 and the pIC50 (second compound 1 µM) was over 9.50. It also gave a viability, T/C (second compound 0.00316 µM, first compound 0.000316 µM) of 108%, a viability, T/C (second compound 0.00316 µM, first compound 0.001 µM) of 81.8% and a viability, T/C (second compound 0.00316 µM, first compound 0.00316 µM) of 79%. For the same molecule, the viability, T/C (second compound 0.00316 µM, first compound 0.01 µM) was 86%, the viability, T/C (second compound 0.00316 µM, first compound 0.0316 µM) was 51.1% and the viability, T/C (second compound 0.00316 µM, first compound 0.1 µM) was 21.9%. For the same molecule, the viability, T/C (second compound 0.01 µM, first compound 0.000316 µM) was 94%, the viability, T/C (second compound 0.01 µM, first compound 0.001 µM) was 81.1% and the viability, T/C (second compound 0.01 µM, first compound 0.00316 µM) was 73.6%. For the same molecule, the viability, T/C (second compound 0.01 µM, first compound 0.01 µM) was 69.4%, the viability, T/C (second compound 0.01 µM, first compound 0.0316 µM) was 47.7% and the viability, T/C (second compound 0.01 µM, first compound 0.1 µM) was 21.3%. It also gave a viability, T/C (second compound 0.0316 µM, first compound 0.000316 µM) of 86.2%, a viability, T/C (second compound 0.0316 µM, first compound 0.001 µM) of 77.4% and a viability, T/C (second compound 0.0316 µM, first compound 0.00316 µM) of 80.7%. For the same molecule, the viability, T/C (second compound 0.0316 µM, first compound 0.01 µM) was 61.7%, the viability, T/C (second compound 0.0316 µM, first compound 0.0316 µM) was 44.8% and the viability, T/C (second compound 0.0316 µM, first compound 0.1 µM) was 19.4%. The viability, T/C (second compound 0.1 µM, first compound 0.000316 µM) was 78.2%, the viability, T/C (second compound 0.1 µM, first compound 0.001 µM) was 65.1% and the viability, T/C (second compound 0.1 µM, first compound 0.00316 µM) was 59.5%. For the same molecule, the viability, T/C (second compound 0.1 µM, first compound 0.01 µM) was 52.5%, the viability, T/C (second compound 0.1 µM, first compound 0.0316 µM) was 35.2% and the viability, T/C (second compound 0.1 µM, first compound 0.1 µM) was 15.9%. It also gave a viability, T/C (second compound 0.316 µM, first compound 0.000316 µM) of 55.1%, a viability, T/C (second compound 0.316 µM, first compound 0.001 µM) of 52.3% and a viability, T/C (second compound 0.316 µM, first compound 0.00316 µM) of 56.6%. It also gave a viability, T/C (second compound 0.316 µM, first compound 0.01 µM) of 40%, a viability, T/C (second compound 0.316 µM, first compound 0.0316 µM) of 28.9% and a viability, T/C (second compound 0.316 µM, first compound 0.1 µM) of 16.6%. For the same molecule, the viability, T/C (second compound 1 µM, first compound 0.000316 µM) was 46.4%, the viability, T/C (second compound 1 µM, first compound 0.001 µM) was 52.5% and the viability, T/C (second compound 1 µM, first compound 0.00316 µM) was 42.4%. It also gave a viability, T/C (second compound 1 µM, first compound 0.01 µM) of 37.8%, a viability, T/C (second compound 1 µM, first compound 0.0316 µM) of 26.6% and a viability, T/C (second compound 1 µM, first compound 0.1 µM) of 11.9%.
